According to ChEMBL document CHEMBL1141321, “Amphidinolides B6 and B7, cytotoxic macrolides from a symbiotic dinoflagellate Amphidinium species” (J Nat Prod, 2007):
Converted amounts (≈) assume the structure as drawn.

Each compound was assayed on DG-75 (assay: Cytotoxicity against human DG75 cells).
Type: functional, cell-based

Q: How did the IC50 turn out when `C=C1/C=C(\C)[C@@H](C)C[C@H](O)CC(=O)[C@H](O)[C@@H](O)[C@H](C)C[C@H](C)OC(=O)[C@@H](C)[C@@H](O)CCCC[C@@H]2O[C@H]2C[C@H](C)C1` [AMPHIDINOLIDE B6] was run?
A: Its IC50 is 0.02 µg/mL (≈ 0.0353 µM).

Q: With `C=C1/C=C(\C)[C@@H](C)C[C@H](O)CC(=O)[C@H](O)[C@@H](O)[C@H](C)C[C@H](C)OC(=O)/C(C)=C/CC/C=C/[C@@H]2O[C@H]2C[C@H](C)C1` [AMPHIDINOLIDE B7] as the compound, how does the IC50 read?
A: Its IC50 is 0.4 µg/mL (≈ 0.732 µM).

Q: For `C=C1/C=C(\C)[C@@H](C)C[C@H](O)CC(=O)[C@H](O)[C@@H](O)[C@H](C)C[C@H](CO)OC(=O)/C(C)=C/CC/C=C/[C@@H]2O[C@H]2C[C@H](C)C1` [AMPHIDINOLIDE H], which IC50 is on record?
A: Its IC50 is 0.001 µg/mL (≈ 0.00178 µM).
